Consider 3 molecules from article PMC3989234, “Introduction of Aromatic Ring-Containing Substituents in Cyclic Nucleotides Is Associated with Inhibition of Toxin Uptake by the Hepatocyte Transporters OATP 1B1 and 1B3” (PLoS ONE, 2014).

Like-named read-outs stand apart in the source and are kept apart here.

For series [1], the target named is T1, OATP1B1 (Homo sapiens, UniProt Q9Y6L6).
T1 sequence (Q9Y6L6 1-691): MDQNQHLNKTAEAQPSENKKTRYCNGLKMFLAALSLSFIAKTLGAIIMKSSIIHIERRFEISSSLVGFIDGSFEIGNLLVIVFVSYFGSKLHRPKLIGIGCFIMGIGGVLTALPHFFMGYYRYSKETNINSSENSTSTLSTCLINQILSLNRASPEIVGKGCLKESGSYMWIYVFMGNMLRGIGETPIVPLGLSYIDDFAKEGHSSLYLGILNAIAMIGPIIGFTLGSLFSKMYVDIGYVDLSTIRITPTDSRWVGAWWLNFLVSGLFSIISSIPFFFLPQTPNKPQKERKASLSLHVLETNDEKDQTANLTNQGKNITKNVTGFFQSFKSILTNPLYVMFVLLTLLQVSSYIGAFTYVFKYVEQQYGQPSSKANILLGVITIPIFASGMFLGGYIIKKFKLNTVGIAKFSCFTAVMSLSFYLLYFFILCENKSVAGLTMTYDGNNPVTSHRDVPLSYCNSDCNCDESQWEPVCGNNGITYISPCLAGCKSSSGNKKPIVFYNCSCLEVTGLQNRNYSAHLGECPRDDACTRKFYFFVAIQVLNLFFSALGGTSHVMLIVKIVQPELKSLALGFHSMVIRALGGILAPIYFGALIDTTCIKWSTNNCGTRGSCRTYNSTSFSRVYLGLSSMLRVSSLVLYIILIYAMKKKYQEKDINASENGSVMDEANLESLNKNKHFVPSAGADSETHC

Series [2] concerns the target T2, OATP1B3 (Homo sapiens, UniProt Q9NPD5).
In series [3] the target is T2, OATP1B3. Particulars: read-out: Ki for inhibition of sodium fluorescein accumulation, OATP1B3; competitive; inhibitor 10 min before, 3 min co-incubation; ± s.e. of the estimate; R2 0.91.
Method: (§1) Estimation of sodium fluorescein accumulation in OATP1B1/1B3 transfected cells was as described by [33], except that the cells were seeded in 24-well tissue culture plates at a density of 200 000 cells/well. Inhibitors were added 10 min prior to addition of sodium fluorescein, and the cells were then co-incubated with inhibitor and substrate for three min before removal of medium and washing.
(§2) The data for uptake of fluorescein into HEK293T cells transfected with OATP1B1 or OATP1B3 in the absence or presence of inhibitor were fitted in SigmaPlot, using Michaelis Menten kinetics with competitive inhibition. Vmax and Km values obtained in absence of inhibitor were used to fit the Ki value for uptake in the presence of inhibitor.
Series [4] has as its system primary rat hepatocytes.
The test system of series [5] is primary rat hepatocytes. The source holds these as a separate data set.
The subject of series [6] is primary rat hepatocytes. The settings on record: 50 µM.
The target in series [7] is T1, OATP1B1. Put plainly: Sodium fluorescein accumulation in OATP1B1-transfected HEK293T cells. The settings on record: read-out: Ki for inhibition of sodium fluorescein accumulation, OATP1B1; competitive; inhibitor 10 min before, 3 min co-incubation; ± s.e. of the estimate; R2 0.79.
Method: as §1, §2
Series [8] addresses T2, OATP1B3. Put plainly: in vitro.
Method: as §1, §2
Series [9] has as its target T1, OATP1B1. Particulars: cited from earlier work.
The target of series [10] is T2, OATP1B3. The settings on record: cited from earlier work.

T2 sequence (Q9NPD5 whole entry): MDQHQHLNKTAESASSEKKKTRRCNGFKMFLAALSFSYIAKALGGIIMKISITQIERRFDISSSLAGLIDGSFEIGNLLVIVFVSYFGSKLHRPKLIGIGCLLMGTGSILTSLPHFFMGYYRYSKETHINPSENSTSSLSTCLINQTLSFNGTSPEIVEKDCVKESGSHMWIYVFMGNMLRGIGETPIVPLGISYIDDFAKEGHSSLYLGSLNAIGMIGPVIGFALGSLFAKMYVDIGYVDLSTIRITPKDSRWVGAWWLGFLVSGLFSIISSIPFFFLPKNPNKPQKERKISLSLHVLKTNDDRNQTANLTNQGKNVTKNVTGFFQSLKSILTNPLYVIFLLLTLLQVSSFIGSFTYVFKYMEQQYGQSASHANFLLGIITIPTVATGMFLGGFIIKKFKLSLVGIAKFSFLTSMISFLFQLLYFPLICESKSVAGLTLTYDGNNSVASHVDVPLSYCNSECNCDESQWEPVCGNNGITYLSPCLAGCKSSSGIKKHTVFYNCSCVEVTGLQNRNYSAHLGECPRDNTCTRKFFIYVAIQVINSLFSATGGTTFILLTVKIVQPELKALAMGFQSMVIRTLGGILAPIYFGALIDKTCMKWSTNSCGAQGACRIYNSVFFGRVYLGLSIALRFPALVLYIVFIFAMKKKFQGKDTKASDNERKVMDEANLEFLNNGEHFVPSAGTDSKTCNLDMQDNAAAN

With `CO[C@@H]1[C@@H]2OP(=O)(O)OC[C@H]2O[C@H]1n1c(Sc2ccc(Cl)cc2)nc2c(N)ncnc21` [8-pCPT-2′-O-Me-cAMP, 8-(4-Chlorophenylthio)-2′-O-methyladenosine-3′, 5′-cyclic monophosphate], in [1], the “Effect on Nod-induced apoptosis / Nod transport, OATP1B1-transfected HEK293T cells” value is given as “abolished”; the IC50 was determined as 46.4 µM; the inhibition constant (Ki) is 15.5 µM. For the same molecule, in series [2], the “Effect on Nod-induced apoptosis / Nod transport, OATP1B3-transfected HEK293T cells” value was “abolished”; half-maximal inhibition (IC50) required 12.6 µM; the Ki amounted to 3.38 µM. For the same molecule, the Ki in series [3] is 75 ± 22 µM. In addition, in series [4], the “Effect on Nod-induced hepatocyte apoptosis (Fig. 1A)” value was “inhibited completely apoptotic morphology” and the “Effect on Nod-induced hepatocyte apoptosis (Fig. 2A)” value is listed as “clear inhibition”. Further, in series [5], the “Effect on [3H]-Nod accumulation in hepatocytes” value is recorded as “almost completely inhibited”. For the same molecule, the “Effect on [14C]-glycocholic acid accumulation in hepatocytes” value in [6] is reported as “almost completely inhibited”. Moreover, the Ki in [7] is 46 ± 21 µM.
`O=C1OC2(c3ccc(O)cc3Oc3cc(O)ccc32)c2ccccc21` [fluorescein, sodium fluorescein]: the Km in [8] was 285 ± 134 µM.
Take Nostocyclopeptide-M1: in series [9], the “Potency as OATP1B1 inhibitor compared with the cAMP analogs” value is “more potent inhibitor”. Besides, the “Potency as OATP1B3 inhibitor compared with the cAMP analogs” value in series [10] is listed as “more potent inhibitor”.
